Assay results taken from the supplement of paper PMC10307832.

Experiments:
Assay in all cases: relative viability (nuclei count vs DMSO), 5 days (fraction); higher = more cells survive
Motesanib + Bortezomib = compound: CC1(C)CNc2cc(NC(=O)c3cccnc3NCc3ccncc3)ccc21 [Motesanib] + CC(C)C[C@H](NC(=O)[C@H](Cc1ccccc1)NC(=O)c1cnccn1)B(O)O [Bortezomib] (partner 0.002 µM)
In short: (§1)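 Dosing by pin tool came one day after lung cancer cell lines were seeded in 1536-well plates, using either one drug or a fixed anchor-drug dose plus five library-drug doses (not always all listed) in √10 steps. After 5 days, nuclei were counted on 4× images. Relative viability is treated-well nuclei count divided by vehicle-well nuclei count, and values are medians of duplicate plates.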

Motesanib + Linsitinib = compound: CC1(C)CNc2cc(NC(=O)c3cccnc3NCc3ccncc3)ccc21 [Motesanib] + C[C@]1(O)C[C@@H](c2nc(-c3ccc4ccc(-c5ccccc5)nc4c3)c3c(N)nccn32)C1 [Linsitinib] (partner 1 µM)
In short: as §1

[1] = compound: C[C@@]1(C(=O)Nc2ccc(F)nc2)CCCN1c1nc(Nc2cc(C3CC3)n[nH]2)c2cccn2n1 + CC(=O)c1c(C)c2cnc(Nc3ccc(N4CCNCC4)cn3)nc2n(C2CCCC2)c1=O [Palbociclib] (partner 0.5 µM)
In short: as §1

[2] = compound: C[C@@]1(C(=O)Nc2ccc(F)nc2)CCCN1c1nc(Nc2cc(C3CC3)n[nH]2)c2cccn2n1 + Cc1nc(Nc2ncc(C(=O)Nc3c(C)cccc3Cl)s2)cc(N2CCN(CCO)CC2)n1 [Dasatinib] (partner 0.075 µM)
In short: as §1

Cell Line | relative viability (Motesanib + Bortezomib; first compound 0.01 µM) | relative viability (Motesanib + Bortezomib; first compound 0.03162 µM) | relative viability (Motesanib + Bortezomib; first compound 0.1 µM) | relative viability (Motesanib + Bortezomib; first compound 0.3162 µM) | relative viability (Motesanib + Bortezomib; first compound 1 µM) | relative viability (Motesanib + Linsitinib; first compound 0.01 µM) | relative viability (Motesanib + Linsitinib; first compound 0.03162 µM) | relative viability (Motesanib + Linsitinib; first compound 0.1 µM) | relative viability (Motesanib + Linsitinib; first compound 0.3162 µM) | relative viability (Motesanib + Linsitinib; first compound 1 µM) | relative viability ([1]; first compound 0.04 µM) | relative viability ([1]; first compound 0.1265 µM) | relative viability ([1]; first compound 0.4 µM) | relative viability ([1]; first compound 1.265 µM) | relative viability ([2]; first compound 0.04 µM) | relative viability ([2]; first compound 0.1265 µM) | relative viability ([2]; first compound 0.4 µM) | relative viability ([2]; first compound 1.265 µM)
LXF-289 | 0.985 | 0.976 | 1.03 | 1.13 | 1.03 | 0.958 | 0.974 | 1.02 | 1 | 1.02 | 0.644 | 0.541 | 0.62 | 0.661 | 0.13 | 0.119 | 0.0865 | 0.0646
NCI-H23 | 1.06 | 0.766 |  | 1.21 | 1.16 | 0.582 | 0.609 |  | 0.56 | 0.527 | 0.386 | 0.267 | 0.243 | 0.305 | 0.653 | 0.384 | 0.325 | 0.269
NCI-H322M | 1.32 | 1.24 | 1.39 | 1.36 | 1.23 | 1.03 | 0.91 | 0.913 | 0.92 | 0.98 | 0.393 | 0.362 | 0.374 | 0.45 | 0.239 | 0.197 | 0.241 | 0.225
NCI-H441 | 0.542 | 0.47 | 0.434 | 0.644 | 0.583 | 0.519 | 0.545 | 0.626 | 0.603 | 0.875 | 0.132 | 0.146 | 0.116 | 0.13 | 0.385 | 0.155 | 0.223 | 0.203
NCI-H460 | 1.09 | 1.18 | 1.08 | 1.25 | 1.1 | 0.836 | 0.817 | 0.726 | 0.899 | 0.744 | 0.226 | 0.0841 | 0.058 | 0.143 | 0.258 | 0.101 | 0.0641 | 0.0353
NCI-H520 | 0.482 | 0.747 | 0.432 | 0.653 | 0.693 | 0.86 | 1.02 | 0.911 | 1.18 | 0.923 | 0.254 | 0.196 | 0.201 | 0.218 | 0.207 | 0.176 | 0.176 | 0.229
NCI-H647 | 0.984 | 1.01 | 0.974 | 1.06 | 0.883 | 1.17 | 1.12 | 1.38 | 1.14 | 1.14 | 0.398 | 0.413 | 0.353 | 0.367 | 0.361 | 0.0884 | 0.105 | 0.214
NCI-H650 | 0.805 | 0.954 | 0.83 | 1.02 | 0.647 | 0.779 | 0.833 | 0.936 | 1.02 | 0.795 | 0.305 | 0.211 | 0.263 | 0.256 | 0.404 | 0.283 | 0.321 | 0.29
NCI-H661 | 0.795 | 0.767 | 0.765 | 0.849 | 1.04 | 0.518 | 0.528 | 0.559 | 0.593 | 0.495 | 0.388 | 0.427 | 0.412 | 0.386 | 0.762 | 0.841 | 0.669 | 0.517
NCI-H727 | 0.735 | 0.926 | 0.883 | 0.919 | 0.818 | 0.3 | 0.329 | 0.304 | 0.292 | 0.15 | 0.575 | 0.528 | 0.404 | 0.38 | 0.278 | 0.182 | 0.273 | 0.229
NCI-H838 | 0.887 | 0.957 | 0.758 | 0.965 | 0.891 | 1.05 | 1.09 | 1.06 | 1.08 | 1.07 | 0.241 | 0.191 | 0.185 | 0.17 | 0.299 | 0.198 | 0.187 | 0.213
NCI-H1355 | 1.2 | 1.33 | 1.22 | 1.35 | 1.18 | 0.792 | 0.75 | 0.801 | 0.865 | 0.834 | 0.312 | 0.269 | 0.242 | 0.321 | 0.545 | 0.488 | 0.434 | 0.421
NCI-H1437 | 0.368 | 0.525 | 0.434 | 0.626 | 0.615 | 0.972 | 1.08 | 1.01 | 1.01 | 1.13 | 0.302 | 0.278 | 0.252 | 0.234 | 0.218 | 0.236 | 0.223 | 0.125
NCI-H1651 | 0.914 | 0.883 | 0.932 | 0.873 | 0.929 | 0.917 | 0.912 | 0.966 | 0.944 | 1.08 | 0.494 | 0.442 | 0.439 | 0.491 | 0.309 | 0.33 | 0.185 | 0.231
NCI-H1666 | 0.845 | 0.766 | 0.816 | 0.77 | 0.862 | 0.966 | 0.83 | 0.786 | 0.788 | 0.753 | 0.647 | 0.627 | 0.599 | 0.603 | 0.709 | 0.613 | 0.486 | 0.412
NCI-H1734 | 1 | 0.929 | 1.01 | 0.918 | 1.09 | 0.843 | 0.951 | 0.897 | 0.976 | 1.01 | 0.275 | 0.236 | 0.226 | 0.282 | 0.345 | 0.296 | 0.29 | 0.185
NCI-H1755 | 0.927 | 0.957 | 1.06 | 0.988 | 1.02 | 1.02 | 0.999 | 1.03 | 1.02 | 1.02 | 0.403 | 0.433 | 0.469 | 0.494 | 0.29 | 0.262 | 0.241 | 0.171
NCI-H1792 | 0.931 | 0.737 | 0.976 | 1.04 | 1.03 | 0.569 | 0.492 | 0.625 | 0.561 | 0.492 | 0.417 | 0.742 | 0.268 | 0.393 | 0.283 | 1.06 | 0.211 | 0.227
